For one series, the system named is HIV-1 (H9/IIIB strain). Nature of the series: Multiple round HIV-1 infection assay (Viking assay) in MT4-GFP cells. The format is cell-based. The conditions noted are these: MT4-GFP cells infected with HIV-1 H9/IIIB, inhibition of reproductive ratio R0. Here is the method:
Assessing Antiviral Potency in a Multiple Round HIV-1 Infection Assay (Viking Assay)
The antiviral activity of the tenofovir prodrugs of the Examples herein was assessed in an assay that measures the rate of replication of HIV in cell culture, termed the Viking assay (Viral KINetics in Green cells) and performed as follows. HIV-1 replication was monitored using MT4-gag-GFP clone D3 (hereafter designated MT4-GFP), which are MT-4 cells modified to harbor a GFP reporter gene, the expression of which is dependent on the HIV-1 expressed proteins tat and rev. Productive infection of an MT4-GFP cell with HIV-1 results in GFP expression approximately 24 h post-infection. MT4-GFP cells were maintained at 37° C./5% CO2/90% relative humidity in RPMI 1640 supplemented with 10% fetal bovine serum, 100 μ/ml penicillin/streptomycin, and 400 μg/ml G418 to maintain the reporter gene. For infections, MT4-GFP cells were placed in the same medium lacking G418 and infected overnight with HIV-1 (H9/IIIB strain) virus at an approximate multiplicity of infection of 0.01 in the same incubation conditions. Cells were then washed and re-suspended in either RPMI 1640 supplemented with 10% or 50% normal human serum (NFIS) at 1.6×10^5 cells/mL (10% NHS or 50% NHS, respectively). Compound plates were prepared by dispensing compounds dissolved in DMSO into wells of 384 well poly-D -lysine-coated plates (0.2 μl/well) using an ECHO acoustic dispenser. Each compound was tested in a 10-point serial 3-fold dilution (typical final concentrations: 8.4 μM-0.42 nM). Controls included no inhibitor (DMSO only) and a combination of three antiviral agents (efavirenz, indinavir, an in-house integrase strand transfer inhibitor at final concentrations of 4 μM each). Cells were added (50 μL/well) to compound plates and the infected cells were maintained at 37° C./5% CO2/90% relative humidity.
infected cells were quantified at two time points, ˜48 h and ˜72 h post -infection, by counting the number of green cells in each well using an Acumen eX3 scanner. The increase in the number of green cells over ˜24 h period gives the reproductive ratio, R0, which is typically 5-15 and has been shown experimentally to be in logarithmic phase (data not shown). Inhibition of R0 is calculated for each well, and IC50s determined by non-linear 4-parameter curve fitting.

Series [1] in a line: Prodrug stability assay in bio-relevant media (FaSSIF with Pancreatin, simulated gastrointestinal tract conditions). It is filed as in vitro ADME. To be noted: % parent prodrug remaining at 5 h vs 0 h, 37° C., 0.5 mg/mL Pancreatin in FaSSIF, HPLC area ratio. Here is the method:
Prodrug Stability Assay in Bio-Relevant Media
The following assay was employed to evaluate the stability of the prodrugs in simulated gastrointestinal tract conditions. Preparation of fasted state simulated intestinal fluid (FaSSIF) using Phares SIF Powder was carried out according to protocols from Phare Drug Delivery AG (Baselland, Switzerland). For sample preparation, 10 μL stock solutions (10 mM) of prodrug substance in DMSO was added to 990 μL of 0.5 mg/mL Pancreatin solution (Fisher CAS#8049-47-6) in FaSSIF. Two samples were prepared for each compound at initial. If the sample was clear solution at the beginning, ran one sample directly as initial by HPLC; if the sample was not clear at starting, diluted the sample by 100% ACN. Put the other sample under 37° C. and observed the sample at 5 h time-point. At 5 h time point, if the sample was clear solution then performed HPLC analysis directly; if it was not clear solution, diluted the sample by 100% ACN and assayed by HPLC. All the samples were vortexed for 3 min and observed before injection. For the diluted samples, the area will be multiplied by a factor when data analysis. The analysis was carried out with an Agilent 1100 series HPLC with autosampler. The column was usually a Poroshell 120 EC -C18, 4.6×50 mm, 2.7 μm. The flow rate was 1.8 mL/min, and the injection volume was 5 or 10 μL. UV detection was in the range 210-400 nm. The mobile phase consisted of solvent A (water plus 10 mM tetrabutylammonium bromide) and solvent B (acetonitrile) with a gradient of 90% solvent A at 0 min changing to 95% solvent B over 6 min, maintained for 1.5 min, then reverting to 90% solvent A over 1.6 min. The area of the parent in prodrug at 5h time point was divided by the area of the parent in prodrug at 0 h time point, to generate the % claimed parent ratio, which are summarized in Table 2 for GI Tract stability.

[2] abbreviates: 10% normal human serum, read-out: Viking, IC50 (10% NHS).
Setting [3] is: 50% normal human serum, read-out: Viking, IC50 (50% NHS).
[4] abbreviates: Human immunodeficiency virus 1, IIIB, 10% normal human serum, read-out: Viking, IC50 (10% NHS).
[5] abbreviates: Human immunodeficiency virus 1, IIIB, 50% normal human serum, read-out: Viking, IC50 (50% NHS).

These results are taken from patent US10449208B2, “Antiviral prodrugs of tenofovir” (Merck Sharp & Dohme Corp., priority 2016, dated 2019).

Like-named read-outs stand apart in the source and are kept apart here.

What is called IC50 is the point on the concentration scale where inhibition reaches its midpoint. For the compound `CCCCCCOC(=O)C(C)(C)NP(=O)(CO[C@H](C)Cn1cnc2c(N)ncnc21)O[C@H](C)C(=O)OC(C)C` (single isomer, unassigned) [Example 9B], the IC50 came out at 1 nM in the series on HIV-1 (H9/IIIB strain) (setting [2]) and 2.78 nM with HIV-1 (H9/IIIB strain) (setting [3]). In addition, the “GI Tract stability” value in series [1] is listed as 6.16%.

As to `CC(C)OC(=O)[C@H](C)OP(=O)(CO[C@H](C)Cn1cnc2c(N)ncnc21)NC(C)(C)C(=O)OC1CCCCC1` (single isomer, unassigned) [Example 12A], the IC50 in the series on HIV-1 (H9/IIIB strain) (setting [4]) turned out to be 5.71 nM; in the series on HIV-1 (H9/IIIB strain) (setting [5]), 25.2 nM. The “GI Tract stability” value in series [1] is 98.95%.

Consider `CC(C)OC(=O)C(C)(C)NP(=O)(CO[C@H](C)Cn1cnc2c(N)ncnc21)O[C@@H](C)C(=O)OC1CCCC1` (single isomer, unassigned) [Example 13A], for which the IC50 in the series with HIV-1 (H9/IIIB strain) (setting [4]) worked out at 6.17 nM; in the series with HIV-1 (H9/IIIB strain) (setting [5]), 51.1 nM. Further, the “GI Tract stability” value in series [1] is recorded as 70.30%.

As to `CC(C)OC(=O)C(C)(C)NP(=O)(CO[C@H](C)Cn1cnc2c(N)ncnc21)O[C@@H](C)C(=O)OC1CCCC1` (single isomer, unassigned) [Example 13B], the IC50 in the series on HIV-1 (H9/IIIB strain) (setting [2]) worked out at 9.44 nM; with HIV-1 (H9/IIIB strain) (setting [3]) it was 60.2 nM. In addition, the “GI Tract stability” value in series [1] is 99.72%.

`CC(C)OC(=O)COP(=O)(CO[C@H](C)Cn1cnc2c(N)ncnc21)NC(C)(C)C(=O)OC1CCC1` (single isomer, unassigned) [Example 17B]: the IC50 in the series on HIV-1 (H9/IIIB strain) (setting [2]) came out at 6.7 nM; in the series with HIV-1 (H9/IIIB strain) (setting [3]) it was 18.4 nM. Besides, in series [1], the “GI Tract stability” value is reported as 99.32%.

As for `CC(C)OC(=O)[C@H](C)OP(=O)(CO[C@H](C)Cn1cnc2c(N)ncnc21)NC(C)(C)C(=O)OC1CCCC1` (single isomer, unassigned) [Example 18A], the IC50 with HIV-1 (H9/IIIB strain) (setting [5]) stood at 16.5 nM; in the series with HIV-1 (H9/IIIB strain) (setting [2]), 6.59 nM. Further, the “GI Tract stability” value in series [1] is reported as 76.31%.

For the compound `CC(C)OC(=O)[C@H](C)OP(=O)(CO[C@H](C)Cn1cnc2c(N)ncnc21)NC(C)(C)C(=O)OC1CCCC1` (single isomer, unassigned) [Example 18B], the IC50 turned out to be 2.69 nM in the series with HIV-1 (H9/IIIB strain) (setting [2]) and 8.77 nM in the series on HIV-1 (H9/IIIB strain) (setting [3]). Moreover, the “GI Tract stability” value in series [1] was 91.31%.

For `CCCCCOC(=O)C(C)(C)NP(=O)(CO[C@H](C)Cn1cnc2c(N)ncnc21)O[C@@H](C)C(=O)OC1CCCC1` (single isomer, unassigned) [Example 19B], the IC50 in the series on HIV-1 (H9/IIIB strain) (setting [2]) is 3.01 nM; in the series with HIV-1 (H9/IIIB strain) (setting [3]), 9.93 nM. Further, the “GI Tract stability” value in series [1] is recorded as 100.00%.

For the compound `CC(C)OC(=O)[C@@H](C)OP(=O)(CO[C@H](C)Cn1cnc2c(N)ncnc21)NC(C)(C)C(=O)OC(C)C` (stereo partly drawn) [Example 20, Isopropyl 2-((((((R)-1-(6-amino-9H-purin-9-yl)propan-2-yl)oxy)methyl)(((R)-1-isopropoxy-1-oxopropan-2-yl)oxy)phosphoryl)amino)-2-methylpropanoate], the IC50 in the series with HIV-1 (H9/IIIB strain) (setting [4]) was 21 nM; in the series on HIV-1 (H9/IIIB strain) (setting [5]), 97 nM. The “GI Tract stability” value in series [1] is 7.19%.

As for `CCCOC(=O)C(C)(C)NP(=O)(CO[C@H](C)Cn1cnc2c(N)ncnc21)OCC(=O)OC(C)C` (stereo partly drawn) [Example 21, Propyl 2-((((((R)-1-(6-amino-9H-purin-9-yl)propan-2-yl)oxy)methyl)(2-isopropoxy-2-oxoethoxy)phosphoryl)amino)-2-methylpropanoate], the values for the IC50 in the series on HIV-1 (H9/IIIB strain) (setting [4]) and in the series on HIV-1 (H9/IIIB strain) (setting [5]) were 6.15 nM and 12 nM, respectively. The “GI Tract stability” value in series [1] was 99.36%.

Consider `CCCOC(=O)C(C)(C)NP(=O)(CO[C@H](C)Cn1cnc2c(N)ncnc21)O[C@@H](C)C(=O)OC(C)C` (stereo partly drawn) [Example 22, Propyl 2-((((((R)-1-(6-amino-9H-purin-9-yl)propan-2-yl)oxy)methyl)(((S)-1-isopropoxy-1-oxopropan-2-yl)oxy)phosphoryl)amino)-2-methylpropanoate], for which the IC50 turned out to be 4.65 nM in the series with HIV-1 (H9/IIIB strain) (setting [4]) and 17.7 nM with HIV-1 (H9/IIIB strain) (setting [5]). In addition, in series [1], the “GI Tract stability” value is reported as 79.24%.

For the compound `CCCOC(=O)C(C)(C)NP(=O)(CO[C@H](C)Cn1cnc2c(N)ncnc21)O[C@H](C)C(=O)OC(C)C` (stereo partly drawn) [Example 23, Propyl 2-((((((R)-1-(6-amino-9H-purin-9-yl)propan-2-yl)oxy)methyl)(((R)-1-isopropoxy-1-oxopropan-2-yl)oxy)phosphoryl)amino)-2-methylpropanoate], the values for the IC50 in the series with HIV-1 (H9/IIIB strain) (setting [4]) and in the series with HIV-1 (H9/IIIB strain) (setting [5]) were 2.67 nM and 8.19 nM, respectively. The “GI Tract stability” value in series [1] is listed as 4.28%.

Regarding `CCCCOC(=O)C(C)(C)NP(=O)(CO[C@H](C)Cn1cnc2c(N)ncnc21)OCC(=O)OC(C)C` (stereo partly drawn) [Example 24, Butyl 2-((((((R)-1-(6-amino-9H-purin-9-yl)propan-2-yl)oxy)methyl)(2-isopropoxy-2-oxoethoxy)phosphoryl)amino)-2-methylpropanoate], the IC50 in the series on HIV-1 (H9/IIIB strain) (setting [4]) came to 4.78 nM; with HIV-1 (H9/IIIB strain) (setting [5]), 27.8 nM. The “GI Tract stability” value in series [1] was 98.30%.

Regarding `CCCCOC(=O)C(C)(C)NP(=O)(CO[C@H](C)Cn1cnc2c(N)ncnc21)O[C@@H](C)C(=O)OC(C)C` (stereo partly drawn) [Example 25, Butyl 2-((((((R)-1-(6-amino-9H-purin-9-yl)propan-2-yl)oxy)methyl)(((S)-1-isopropoxy-1-oxopropan-2-yl)oxy)phosphoryl)amino)-2-methylpropanoate], the concentration for half-maximal inhibition (IC50) stood at 2.44 nM in the series on HIV-1 (H9/IIIB strain) (setting [4]) and 10.5 nM with HIV-1 (H9/IIIB strain) (setting [5]). Further, the “GI Tract stability” value in series [1] is 79.61%.

In the case of `CCCCOC(=O)C(C)(C)NP(=O)(CO[C@H](C)Cn1cnc2c(N)ncnc21)O[C@H](C)C(=O)OC(C)C` (stereo partly drawn) [Example 26, Butyl 2-((((((R)-1-(6-amino-9H-purin-9-yl)propan-2-yl)oxy)methyl)(((R)-1-isopropoxy-1-oxopropan-2-yl)oxy)phosphoryl)amino)-2-methylpropanoate], the half-inhibitory concentration (IC50) worked out at 3.1 nM in the series with HIV-1 (H9/IIIB strain) (setting [4]) and 8.74 nM in the series with HIV-1 (H9/IIIB strain) (setting [5]). The “GI Tract stability” value in series [1] is reported as 9.01%.

For `CC(C)COC(=O)C(C)(C)NP(=O)(CO[C@H](C)Cn1cnc2c(N)ncnc21)O[C@@H](C)C(=O)OC(C)C` (stereo partly drawn) [Example 31, Isobutyl 2-((((((R)-1-(6-amino-9H-purin-9-yl)propan-2-yl)oxy)methyl)(((S)-1-isopropoxy-1-oxopropan-2-yl)oxy)phosphoryl)amino)-2-methylpropanoate], the IC50 is 2.39 nM with HIV-1 (H9/IIIB strain) (setting [4]) and 7.57 nM in the series with HIV-1 (H9/IIIB strain) (setting [5]). In series [1], the “GI Tract stability” value was 85.48%.

Turning to `CCCCCCOC(=O)C(C)(C)NP(=O)(CO[C@H](C)Cn1cnc2c(N)ncnc21)O[C@@H](Cc1ccccc1)C(=O)OC(C)C` (stereo partly drawn) [Example 33, Hexyl 2-((((((R)-1-(6-amino-9H-purin-9-yl)propan-2-yl)oxy)methyl)(((S)-1-isopropoxy-1-oxo-3-phenylpropan-2-yl)oxy)phosphoryl)amino)-2-methylpropanoate], the results for the IC50 in the series on HIV-1 (H9/IIIB strain) (setting [4]) and in the series on HIV-1 (H9/IIIB strain) (setting [5]) were 1.69 nM and 5.06 nM, respectively. The “GI Tract stability” value in series [1] is reported as 26.96%.
